Entries after “also recorded” stand apart in the source; their conditions may differ. Residues, ends and D or L forms follow the SMILES beside them. No end group written: not given here.

The test system of one assay is CCl4-treated mice. As to the kind of experiment: CCl4 induced liver fibrosis in mice, collagen in the liver as marker of matrix accumulation. The class given is in vivo. The note with it: Example 2, Figure 1, CCl4 for 6 weeks, peptides 25 mg/kg/mouse/day intraperitoneal, daily from day 32 for 10 days. The protocol: Figure 1 Prevention of fibrosis progression by proline-containing cyclic and amidated linear peptides. Mice were injected for 6 weeks with CCl4 in order to induce liver fibrosis. Starting on day 32 the mice received daily intraperitoneal injections of 25 mg/kg/mouse/day of the peptides in 0.9% NaCl for a total of 10 days. CCl4-treated mice also received NaCl 0.9%. The healthy control group (CT) only received 0.9% NaCl. N= 4/ 10/ 8/ 5/ 10/ 8/ 11/ 7 in two experiments. The following peptides were tested on CCl4-treated mice: cyclic Pro-Gly-Leu-Gln-Gly-Glu (Cyclic PGLQGE), and compared to two controls: cyclic Pro-Gly-Leu-Asn-Gly-Glu (Cyclic CT1+P: cyclic PGLNGE) and cyclic Pro-Gly-Leu-Hyp-Gly-Glu (Cyclic CT2+P: cyclic PGLOGE). Linear Gly-Leu-Gln-Gly-Glu-NH2 (Linear GLQGE-NH2) was also tested and compared to two controls: linear Gly-Leu-Asn-Gly-Glu-NH2 (Linear CT1-NH2: linear GLNGE-NH2) and linear Gly-Leu-Hyp-Gly-Glu-NH2 (Linear CT2-NH2: linear GLOGE-NH2). *p<0.05. Evaluated by t-test. Data presented as mean +/- SEM. Figure 2 Prevention of fibrosis progression by cyclic peptides and acetylated linear peptides. Mice were injected for 6 weeks with CCl4 in order to induce liver fibrosis. Starting on day 32 the mice received daily intraperitoneal injections of 25 mg/kg/mouse/day of the peptides in 0.9% NaCl for a total of 10 days. CCl4-treated mice also received NaCl 0.9%. The healthy control group (CT) only received 0.9% NaCl. N= 5/ 18/ 9/ 9/ 6/ 5/ 4/ 4 in two experiments. The following peptides were tested on CCl4-treated mice: cyclic Gly-Leu-Gln-Gly-Glu (Cyclic GLQGE), and compared to two controls: cyclic Gly-Leu-Asn-Gly-Glu (Cyclic CT1: cyclic GLNGE) and cyclic Gly-Leu-Hyp-Gly-Glu (Cyclic CT2: cyclic GLOGE). Linear Ac-Gly-Leu-Gln-Gly-Glu (Linear Ac-GLQGE) was also tested and compared to two controls: linear Ac-Gly-Leu-Asn-Gly-Glu (Linear Ac-CT1: linear Ac-GLNGE) and linear Ac-Gly-Leu-Hyp-Gly-Glu (Linear Ac-CT2: linear Ac-GLOGE). *p<0.05, **p<0.005. Evaluated by t-test. Data presented as mean +/- SEM.
Mice were injected for 6 weeks with CCl4 in order to induce liver fibrosis. Starting on day 32 the mice received daily intraperitoneal injections of the peptides at a final dose of 25 mg/kg/mouse/day diluted in NaCl 0.9% for a total of 10 days. In these experiments, the following peptides were tested: cyclic peptide Pro-Gly-Leu-Gln-Gly-Glu, cyclic peptide Pro-Gly-Leu-Asn-Gly-Glu, cyclic peptide Pro-Gly-Leu-Hyp-Gly-Glu, linear peptide Gly-Leu-Gln-Gly-Glu-NH2, linear peptide Gly-Leu-Asn-Gly-Glu-NH2, linear peptide Gly-Leu-Hyp-Gly-Glu-NH2.
Mice were injected for 6 weeks with CCl4 in order to induce liver fibrosis. Starting on day 32 the mice received daily intraperitoneal injections of the peptides at a final dose of 25 mg/kg/mouse/day diluted in NaCl 0.9% for a total of 10 days. In these experiments, the following peptides were tested: cyclic peptide Gly-Leu-Gln-Gly-Glu, cyclic peptide Gly-Leu-Asn-Gly-Glu, cyclic peptide Gly-Leu-Hyp-Gly-Glu, linear peptide Ac-Gly-Leu-Gln-Gly-Glu, linear peptide Ac-Gly-Leu-Asn-Gly-Glu, linear peptide Ac-Gly-Leu-Hyp-Gly-Glu.
With `CC(C)C[C@@H]1NC(=O)CNC(=O)[C@@H]2CCCN2C(=O)[C@H](CCC(=O)O)NC(=O)CNC(=O)[C@H](CCC(N)=O)NC1=O` [Cyclic PGLQGE, Pro-Gly-Leu-Gln-Gly-Glu] (HELM PEPTIDE1{E.P.G.L.Q.G}$PEPTIDE1,PEPTIDE1,1:R1-6:R2$$$V2.0), the collagen accumulation entry is recorded as “able to significantly reduce collagen accumulation”.
Same read-out and setting: with `CC(C)C[C@@H]1NC(=O)CNC(=O)[C@@H]2CCCN2C(=O)[C@H](CCC(=O)O)NC(=O)CNC(=O)[C@H](CC(N)=O)NC1=O` [Cyclic CT1+P, Pro-Gly-Leu-Asn-Gly-Glu] (HELM PEPTIDE1{E.P.G.L.N.G}$PEPTIDE1,PEPTIDE1,1:R1-6:R2$$$V2.0) the entry was “neither the cyclic forms of the control peptides (with Pro: Pro-Gly-Leu-Asn-Gly-Glu or Pro-Gly-Leu-Hyp-Gly-Glu) nor the linear forms of the control peptides Gly-Leu-Asn-Gly-Glu-NH2 and Gly-Leu-Hyp-Gly-Glu-NH2 were able to reduce collagen amount in the liver”; with `CC(C)C[C@@H]1NC(=O)CNC(=O)[C@@H]2CCCN2C(=O)[C@H](CCC(=O)O)NC(=O)CNC(=O)[C@@H]2C[C@@H](O)CN2C1=O` [Cyclic CT2+P, Pro-Gly-Leu-Hyp-Gly-Glu] (HELM PEPTIDE1{E.P.G.L.[Hyp].G}$PEPTIDE1,PEPTIDE1,1:R1-6:R2$$$V2.0), “neither the cyclic forms of the control peptides (with Pro: Pro-Gly-Leu-Asn-Gly-Glu or Pro-Gly-Leu-Hyp-Gly-Glu) nor the linear forms of the control peptides Gly-Leu-Asn-Gly-Glu-NH2 and Gly-Leu-Hyp-Gly-Glu-NH2 were able to reduce collagen amount in the liver”.
As to “GLQGE-NH2 [Linear GLQGE-NH2, Gly-Leu-Gln-Gly-Glu-NH2]”, the collagen accumulation entry is “able to significantly reduce CCl4-induced collagen accumulation”.

The same assay, now with this note: Example 3, Figure 2, CCl4 for 6 weeks, peptides 25 mg/kg/mouse/day intraperitoneal, daily from day 32 for 10 days.
As to `CC(C)C[C@@H]1NC(=O)CNC(=O)[C@H](CCC(=O)O)NC(=O)CNC(=O)[C@@H]2C[C@@H](O)CN2C1=O` [Cyclic CT2, Gly-Leu-Hyp-Gly-Glu] (HELM PEPTIDE1{E.G.L.[Hyp].G}$PEPTIDE1,PEPTIDE1,1:R1-5:R2$$$V2.0), the collagen accumulation result was “failed to inhibit collagen accumulation”.
Still for that read-out and setting: under `CC(=O)NCC(=O)N[C@@H](CC(C)C)C(=O)N1C[C@H](O)C[C@H]1C(=O)NCC(=O)N[C@@H](CCC(=O)O)C(=O)O` [Linear Ac-CT2, Ac-Gly-Leu-Hyp-Gly-Glu] stands “neither the cyclic forms nor the linear forms of the peptides Ac-Gly-Leu-Asn-Gly-Glu and Ac-Gly-Leu-Hyp-Gly-Glu were able to reduce collagen amount in the liver”.
Still for that read-out and setting: under “Ac-GLQGE [Linear Ac-GLQGE, Ac-Gly-Leu-Gln-Gly-Glu]” stands “able to significantly reduce CCl4-induced collagen accumulation”; under `CC(C)C[C@@H]1NC(=O)CNC(=O)[C@H](CCC(=O)O)NC(=O)CNC(=O)[C@H](CCC(N)=O)NC1=O` [Cyclic GLQGE, Gly-Leu-Gln-Gly-Glu] (HELM PEPTIDE1{E.G.L.Q.G}$PEPTIDE1,PEPTIDE1,1:R1-5:R2$$$V2.0), “larger inhibitory effect compared to the linear Gly-Leu-Gln-Gly-Glu-NH2 or Ac-Gly-Leu-Gln-Gly-Glu”.
The same measure, in the same setting: under `CC(C)C[C@@H]1NC(=O)CNC(=O)[C@H](CCC(=O)O)NC(=O)CNC(=O)[C@H](CC(N)=O)NC1=O` [Cyclic CT1, Gly-Leu-Asn-Gly-Glu] (HELM PEPTIDE1{E.G.L.N.G}$PEPTIDE1,PEPTIDE1,1:R1-5:R2$$$V2.0) stands “failed to inhibit collagen accumulation”; under “Ac-GLNGE [Linear Ac-CT1, Ac-Gly-Leu-Asn-Gly-Glu]”, “neither the cyclic forms nor the linear forms of the peptides Ac-Gly-Leu-Asn-Gly-Glu and Ac-Gly-Leu-Hyp-Gly-Glu were able to reduce collagen amount in the liver”.

The same assay, now with this note: Example 3, Figure 2, CCl4 for 6 weeks, peptides 25 mg/kg/mouse/day intraperitoneal, daily from day 32 for 10 days, listed as cyclic peptide Gly-Leu-Gln-Gly-Glu.
In the case of `CC(C)C[C@@H]1NC(=O)CNC(=O)[C@H](CCC(=O)O)NC(=O)CNC(=O)[C@H](CCC(N)=O)NC1=O` [Cyclic GLQGE, Gly-Leu-Gln-Gly-Glu] (HELM PEPTIDE1{E.G.L.Q.G}$PEPTIDE1,PEPTIDE1,1:R1-5:R2$$$V2.0), the collagen accumulation result is “able to significantly reduce collagen accumulation; also recorded: more efficient in reducing collagen accumulation also in comparison to the cyclic peptide with proline Pro-Gly-Leu-Gln-Gly-Glu”.

Another assay deals with TGFβ. In words: unstimulated TGFβ expression in murine hepatocytes (data not shown). The class given is cell-based.
Settings: not given
For the molecule “GLNGE-NH2 [Linear CT1-NH2, Gly-Leu-Asn-Gly-Glu-NH2]”, the “unstimulated TGFβ expression” value is on record as “had no effect”.
The same measure, in the same setting: with `CC(C)C[C@H](NC(=O)CN)C(=O)N1C[C@H](O)C[C@H]1C(=O)NCC(=O)N[C@@H](CCC(=O)O)C(N)=O` [Linear CT2-NH2, Gly-Leu-Hyp-Gly-Glu-NH2] the entry was “had no effect”.
On the same count and under the same terms, under “GLQGE-NH2 [Linear GLQGE-NH2, Gly-Leu-Gln-Gly-Glu-NH2]” stands “efficiently inhibits unstimulated TGFβ expression in murine hepatocytes”.

Source of the values: patent EP3771464A1, “PEPTIDES AS INHIBITOR OF FIBROTIC MATRIX ACCUMULATION” (Max-Planck-Gesellschaft zur Förderung der Wissenschaften …, priority 2019, dated 2021).
